This passage reports IC50 results from US10738056B2 (Aduro BioTech, Inc., priority 2017, dated 2020).

Like-named read-outs stand apart in the source and are kept apart here.

Assay [1] deals with Human cGAS amino acids 155-522 (Homo sapiens (Human), UniProt Q8N884). Nature of the assay: cGAS biochemical activity assay (ATP remaining, Kinase-Glo Max luminescence). The settings on record: human cGAS 155-522, ATP remaining (Kinase-Glo Max); read-out: cGAS IC50. (In Kinase-Glo more light means more ATP remaining.)
The subject of assay [2] is cGAS/STING pathway in THP1 cells. Put plainly: THP1 cell-based cGAS/STING pathway activity assay (IRF-3-linked luciferase reporter). A digest of the protocol: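 THP1 cells carrying an IRF-3-driven luciferase reporter were read across a range of compound concentrations, and IC50 values were derived from these concentration responses; the assay upper limit was 100 μM.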

Human cGAS amino acids 155-522, sequence (Q8N884 157-522): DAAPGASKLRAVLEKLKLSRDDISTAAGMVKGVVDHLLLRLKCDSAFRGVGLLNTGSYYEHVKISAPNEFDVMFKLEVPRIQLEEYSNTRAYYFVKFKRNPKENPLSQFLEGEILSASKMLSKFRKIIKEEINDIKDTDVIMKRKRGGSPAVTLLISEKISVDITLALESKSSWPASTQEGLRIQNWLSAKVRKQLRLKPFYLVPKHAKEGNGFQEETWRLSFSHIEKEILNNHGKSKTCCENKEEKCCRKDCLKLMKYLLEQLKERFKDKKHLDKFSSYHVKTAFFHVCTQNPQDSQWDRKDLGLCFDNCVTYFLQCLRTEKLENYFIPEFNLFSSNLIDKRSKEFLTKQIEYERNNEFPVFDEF

Usually IC50 stands for the concentration that inhibits the measured activity by half. For the compound `COc1cc(CN)cc2oc(-c3c(C)[nH]c4c(-c5ccccc5)c(C(F)(F)F)nn4c3=O)nc12` [Compound C1135, 6-(6-(aminomethyl)-4-methoxybenzo[d]oxazol-2-yl)-5-methyl-3-phenyl-2-(trifluoromethyl)pyrazolo[1,5-a]pyrimidin-7(4H)-one], the IC50 was less than 20 µM in assay [1] and greater than 100 µM in assay [2] (Homo sapiens, THP-1).

In the case of `Cc1[nH]c2c(-c3ccccc3)c(C(F)(F)F)nn2c(=O)c1-c1nc(CO)co1` [Compound C1104, 6-(4-(hydroxymethyl)oxazol-2-yl)-5-methyl-3-phenyl-2-(trifluoromethyl)pyrazolo[1,5-a]pyrimidin-7(4H)-one], the IC50 in assay [1] was less than 20 µM; in assay [2] (Homo sapiens, THP-1), greater than 100 µM.

Turning to `Cc1[nH]c2c(-c3ccccc3)c(C(F)(F)F)nn2c(=O)c1C(=O)Nc1ccn(C)n1` [Compound A1029, 5-methyl-N-(1-methyl-1H-pyrazol-3-yl)-7-oxo-3-phenyl-2-(trifluoromethyl)-4,7-dihydropyrazolo[1,5-a]pyrimidine-6-carboxamide], the IC50 in assay [1] is less than 20 µM; in assay [2] (Homo sapiens, THP-1), 20 to 100 µM.

As for `CO[C@@H]1CCCC[C@H]1c1nnc(-c2c(C)[nH]c3c(-c4ccccc4)c(C(F)(F)F)nn3c2=O)o1` [D1046 Iso-3], the values for the IC50 in assay [1] and in assay [2] (read-out: THP-1 IC50) were less than 20 µM and greater than 100 µM, respectively.

For `Cc1[nH]c2c(-c3ccccc3)c(C(F)(F)F)nn2c(=O)c1-c1nc2ccccc2c(=O)[nH]1` [Compound C1019, 2-(5-methyl-7-oxo-3-phenyl-2-(trifluoromethyl)-4,7-dihydropyrazolo[1,5-a]pyrimidin-6-yl)quinazolin-4(3H)-one], the half-inhibitory concentration (IC50) is less than 20 µM in assay [1] and 20 to 100 µM in assay [2] (Homo sapiens, THP-1).

For the compound `Cc1[nH]c2c(-c3ccccc3)c(C(F)(F)F)nn2c(=O)c1-c1nnc(-c2ccnc(O)c2)o1` [Compound D1085, 6-(5-(2-hydroxypyridin-4-yl)-1,3,4-oxadiazol-2-yl)-5-methyl-3-phenyl-2-(trifluoromethyl)pyrazolo[1,5-a]pyrimidin-7(4H)-one], the IC50 in assay [1] was less than 20 µM; in assay [2] (Homo sapiens, THP-1), greater than 100 µM.

As for `Cc1[nH]c2c(-c3ccccc3)c(C(F)(F)F)nn2c(=O)c1C(=O)Nc1nccs1` [Compound A1028, 5-methyl-7-oxo-3-phenyl-N-(thiazol-2-yl)-2-(trifluoromethyl)-4,7-dihydropyrazolo[1,5-a]pyrimidine-6-carboxamide], the IC50 in assay [1] is less than 20 µM; in assay [2] (Homo sapiens, THP-1) it was 20 to 100 µM.

Turning to `CNc1cc(OC)c2nc(-c3c(C)[nH]c4c(-c5ccccc5)c(C(F)(F)F)nn4c3=O)oc2c1` [Compound C1161, 6-(4-methoxy-6-(methylamino)benzo[d]oxazol-2-yl)-5-methyl-3-phenyl-2-(trifluoromethyl)pyrazolo[1,5-a]pyrimidin-7(4H)-one], the IC50 in assay [1] is less than 20 µM; in assay [2] (Homo sapiens, THP-1), less than 20 µM.

As to `Cc1[nH]c2c(-c3ccccc3)c(C(F)(F)F)nn2c(=O)c1C(=O)Nc1ccccc1S(C)(=O)=O` [Compound A1083, 5-methyl-N-(2-(methylsulfonyl)phenyl)-7-oxo-3-phenyl-2-(trifluoromethyl)-4,7-dihydropyrazolo[1,5-a]pyrimidine-6-carboxamide], the IC50 in assay [1] is less than 20 µM; in assay [2] (Homo sapiens, THP-1), greater than 100 µM.

For `COc1cccc2oc(-c3c(COC4COC4)[nH]c4c(-c5ccccc5)c(C(F)(F)F)nn4c3=O)nc12` [Compound C1152, 6-(4-methoxybenzo[d]oxazol-2-yl)-5-((oxetan-3-yloxy)methyl)-3-phenyl-2-(trifluoromethyl)pyrazolo[1,5-a]pyrimidin-7(4H)-one], the IC50 was less than 20 µM in assay [1] and 20 to 100 µM in assay [2] (Homo sapiens, THP-1).

As for `COCc1ccccc1NC(=O)c1c(C)[nH]c2c(-c3ccccc3)c(C(F)(F)F)nn2c1=O` [Compound A1072, N-(2-(methoxymethyl)phenyl)-5-methyl-7-oxo-3-phenyl-2-(trifluoromethyl)-4,7-dihydropyrazolo[1,5-a]pyrimidine-6-carboxamide], the IC50 is 20 to 250 µM in assay [1] and 20 to 100 µM in assay [2] (Homo sapiens, THP-1).

As to `Cc1cc(NC(=O)c2c(C)[nH]c3c(-c4ccccc4)c(C(F)(F)F)nn3c2=O)n(C)n1` [Compound A1073, N-(1,3-dimethyl-1H-pyrazol-5-yl)-5-methyl-7-oxo-3-phenyl-2-(trifluoromethyl)-4,7-dihydropyrazolo[1,5-a]pyrimidine-6-carboxamide], the IC50 in assay [1] is 20 to 250 µM; in assay [2] (Homo sapiens, THP-1), greater than 100 µM.

Consider `COCCOCc1[nH]c2c(-c3ccccc3)c(C#N)nn2c(=O)c1-c1nc2c(OC)cccc2o1` [Compound C1243, 6-(4-methoxybenzo[d]oxazol-2-yl)-5-((2-methoxyethoxy)methyl)-7-oxo-3-phenyl-4,7-dihydropyrazolo[1,5-a]pyrimidine-2-carbonitrile], for which the concentration for half-maximal inhibition (IC50) in assay [1] is less than 20 µM; in assay [2] (Homo sapiens, THP-1), less than 20 µM.

`COc1cccc2oc(-c3c(C(=O)NCC(C)(C)O)[nH]c4c(-c5ccccc5)c(C(F)(F)F)nn4c3=O)nc12` [Compound C1219, N-(2-hydroxy-2-methylpropyl)-6-(4-methoxybenzo[d]oxazol-2-yl)-7-oxo-3-phenyl-2-(trifluoromethyl)-4,7-dihydropyrazolo[1,5-a]pyrimidine-5-carboxamide]: the IC50 is less than 20 µM in assay [1] and greater than 100 µM in assay [2] (Homo sapiens, THP-1).

Take `Cc1nn2c(=O)c(-c3nnc(C4CCCOC4)o3)c(C)[nH]c2c1-c1ccccc1` (stereo not drawn) [Compound D1030, 2,5-dimethyl-3-phenyl-6-(5-(tetrahydro-2H-pyran-3-yl)-1,3,4-oxadiazol-2-yl)pyrazolo[1,5-a]pyrimidin-7(4H)-one]: the IC50 in assay [1] was less than 20 µM; in assay [2] (Homo sapiens, THP-1), greater than 100 µM.

On to `CC(=O)N1CCCCC1c1nnc(-c2c(C)[nH]c3c(-c4ccccc4)c(C(F)(F)F)nn3c2=O)o1` (stereo not drawn) [Compound D1057, 6-(5-(1-acetylpiperidin-2-yl)-1,3,4-oxadiazol-2-yl)-5-methyl-3-phenyl-2-(trifluoromethyl)pyrazolo[1,5-a]pyrimidin-7(4H)-one], for which the IC50 is less than 20 µM in assay [1] and 20 to 100 µM in assay [2] (Homo sapiens, THP-1).

Regarding `Cc1[nH]c2c(-c3ccccc3)c(C(F)(F)F)nn2c(=O)c1-c1nnc(C2(N)CCCC2)o1` [Compound D1062, 6-(5-(1-aminocyclopentyl)-1,3,4-oxadiazol-2-yl)-5-methyl-3-phenyl-2-(trifluoromethyl)pyrazolo[1,5-a]pyrimidin-7(4H)-one], the IC50 in assay [1] was less than 20 µM; in assay [2] (Homo sapiens, THP-1) it was greater than 100 µM.

Consider `Cc1[nH]c2c(-c3ccccc3)c(C(F)(F)F)nn2c(=O)c1-c1ncco1` [Compound C1170, 5-methyl-6-(oxazol-2-yl)-3-phenyl-2-(trifluoromethyl)pyrazolo[1,5-a]pyrimidin-7(4H)-one], for which the IC50 was less than 20 µM in assay [1] and greater than 100 µM in assay [2] (Homo sapiens, THP-1).

For `Cc1[nH]c2c(-c3ccccc3)c(C(F)(F)F)nn2c(=O)c1-c1nnc(C2CCCO2)o1` (stereo not drawn) [Compound D1012, 5-methyl-3-phenyl-6-(5-(tetrahydrofuran-2-yl)-1,3,4-oxadiazol-2-yl)-2-(trifluoromethyl)pyrazolo[1,5-a]pyrimidin-7(4H)-one], the IC50 in assay [1] was less than 20 µM; in assay [2] (Homo sapiens, THP-1), greater than 100 µM.

As to `CO[C@H]1CCCCC1c1nnc(-c2c(C)[nH]c3c(-c4ccccc4)c(C(F)(F)F)nn3c2=O)o1` (stereo partly drawn) [D1046 Iso-1], the 50% inhibitory concentration (IC50) in assay [1] and in assay [2] (read-out: THP-1 IC50) was less than 20 µM throughout.

For the compound `Cc1[nH]c2c(-c3ccccc3)c(C(F)(F)F)nn2c(=O)c1-c1nc2c([nH]1)CCCC2` [Compound C1017, 5-methyl-3-phenyl-6-(4,5,6,7-tetrahydro-1H-benzo[d]imidazol-2-yl)-2-(trifluoromethyl)pyrazolo[1,5-a]pyrimidin-7(4H)-one], the IC50 was less than 20 µM in assay [1] and 20 to 100 µM in assay [2] (Homo sapiens, THP-1).

Consider `COc1cccc2oc(-c3c(C(N)=O)[nH]c4c(-c5ccccc5)c(C(F)(F)F)nn4c3=O)nc12` [Compound C1132, 6-(4-methoxybenzo[d]oxazol-2-yl)-7-oxo-3-phenyl-2-(trifluoromethyl)-4,7-dihydropyrazolo[1,5-a]pyrimidine-5-carboxamide], for which the IC50 in assay [1] is less than 20 µM; in assay [2] (Homo sapiens, THP-1), greater than 100 µM.

Regarding `COc1cncc2oc(-c3c(C)[nH]c4c(-c5ccccc5)c(C(F)(F)F)nn4c3=O)nc12` [Compound C1096, 6-(7-methoxyoxazolo[5,4-c]pyridin-2-yl)-5-methyl-3-phenyl-2-(trifluoromethyl)pyrazolo[1,5-a]pyrimidin-7(4H)-one], the IC50 was less than 20 µM in assay [1] and greater than 100 µM in assay [2] (Homo sapiens, THP-1).

In the case of `Cc1[nH]c2c(-c3ccccc3)c(C(F)(F)F)nn2c(=O)c1C(=O)Nc1ccn(CCO)n1` [Compound A1118, N-(1-(2-hydroxyethyl)-1H-pyrazol-3-yl)-5-methyl-7-oxo-3-phenyl-2-(trifluoromethyl)-4,7-dihydropyrazolo[1,5-a]pyrimidine-6-carboxamide], the IC50 in assay [1] was 20 to 250 µM; in assay [2] (Homo sapiens, THP-1), greater than 100 µM.

`C#Cc1nn2c(=O)c(-c3nc4c(OC)cccc4o3)c(C)[nH]c2c1-c1ccccc1` [Compound C1211, 2-ethynyl-6-(4-methoxybenzo[d]oxazol-2-yl)-5-methyl-3-phenylpyrazolo[1,5-a]pyrimidin-7(4H)-one]: the IC50 in assay [1] was less than 20 µM; in assay [2] (Homo sapiens, THP-1) it was greater than 100 µM.

Consider `COc1cccc2oc(-c3c(C(=O)NCC(=O)O)[nH]c4c(-c5ccccc5)c(C(F)(F)F)nn4c3=O)nc12` [Compound C1195, (6-(4-methoxybenzo[d]oxazol-2-yl)-7-oxo-3-phenyl-2-(trifluoromethyl)-4,7-dihydropyrazolo[1,5-a]pyrimidine-5-carbonyl)glycine], for which the 50% inhibitory concentration (IC50) is less than 20 µM in assay [1] and greater than 100 µM in assay [2] (Homo sapiens, THP-1).

As to `Cc1[nH]c2c(-c3ccccc3)c(C(F)(F)F)nn2c(=O)c1C(=O)NS(=O)(=O)c1ccccc1` [Compound A1116, 5-methyl-7-oxo-3-phenyl-N-(phenylsulfonyl)-2-(trifluoromethyl)-4,7-dihydropyrazolo[1,5-a]pyrimidine-6-carboxamide], the IC50 in assay [1] was less than 20 µM; in assay [2] (Homo sapiens, THP-1), 20 to 100 µM.
